Laboratory results published in paper PMC8632988, “Inhibition of SYK and cSrc kinases can protect bone and cartilage in preclinical models of osteoarthritis and rheumatoid arthritis” (Scientific Reports, 2021).
Several values for one entry are separate records, joined by “and”; a condition that tells them apart may be missing. Equal values may be shown once. Read-outs that look alike come from different tables or passages of the source.

Assay: Pharmacokinetics after single oral administration to rats
Assay type: in vivo, rat
Details: for AUC(0-inf) / Cmax / Tmax / AUC(0-t) / half-life: po; for half-life: read-out: Terminal t1/2, Mean (converted); for AUC: read-out: AUC48
Protocol: Experiments were performed at ChemPartner, Shanghai, China and approved by Institutional Ethics Committee (IEC) of ChemPartner. Male Wistar 10–12 weeks old rats with body weights of 185–220 g and male New Zealand rabbits with body weights of 2.0–2.3 kg were purchased from Shanghai SLAC Laboratory Animal Co., Ltd. MT-SYK-03 was administered to the three groups of rats (six rats per group) via oral gavage at 10 mL/kg concentration, and in rabbits 5 mL/kg concentration. Blood samples were kept on ice and centrifuged (2000 g, 4 ℃, 5 min) within 15 min post sampling.

[1] = male, Wistar, rat, plasma, oral, 200 mg/kg, Table S8, 200 mg/kg PO, male Wistar rats, individual Rat#13-18, read-out: Plasma concentration
[2] = male, Wistar, rat, plasma, oral, 200 mg/kg, Table S8, 200 mg/kg PO, male Wistar rats, mean of Rat#13-18, read-out: Plasma concentration, Mean
[3] = male, Wistar, rat, plasma, rats, single oral 30 mg/kg
[4] = male, Wistar, rat, plasma, rats, single oral 100 mg/kg
[5] = male, Wistar, rat, plasma, rats, single oral 200 mg/kg

COc1cc(Nc2ncnc(Nc3cc4c(cn3)NC(=O)C(C)(C)O4)n2)cc(OC)c1OC [MT-SYK-03]
concentration at 0.5 h [1]: 858 ng/mL
concentration at 0.5 h [2]: 892 ng/mL
concentration at 1 h [1]: 984 ng/mL
concentration at 1 h [2]: 1220 ng/mL
concentration at 2 h [1]: 1180 ng/mL
concentration at 2 h [2]: 1040 ng/mL
concentration at 4 h (male, Wistar, rat, plasma, oral, 200 mg/kg, Table S8, 200 mg/kg PO, male Wistar rats, 4 h, mean of Rat#13-18): 725 ng/mL
concentration at 8 h (male, Wistar, rat, plasma, oral, 200 mg/kg, Table S8, 200 mg/kg PO, male Wistar rats, 8 h, mean of Rat#13-18): 206 ng/mL
concentration at 24 h (male, Wistar, rat, plasma, oral, 200 mg/kg, Table S8, 200 mg/kg PO, male Wistar rats, 24 h, mean of Rat#13-18): 4.99 ng/mL
concentration at 48 h (male, Wistar, rat, plasma, oral, 200 mg/kg, Table S8, 200 mg/kg PO, male Wistar rats, 48 h, mean of Rat#13-18, read-out: Plasma concentration, Mean): 5.44 ng/mL
AUC(0-inf) (male, Wistar, rat, plasma, 30 mg/kg, rats, single oral 30 mg/kg, read-out: AUCinf): 2420 ± 945 ng·h/mL
Cmax (male, Wistar, rat, plasma, 30 mg/kg, rats, single oral 30 mg/kg, read-out: Cmax): 416 ± 114 ng/mL
Tmax (male, Wistar, rat, plasma, 30 mg/kg, rats, single oral 30 mg/kg, read-out: Tmax): 1.5 ± 0.548 h
Tmax (male, Wistar, rat, plasma, 100 mg/kg, Table S6, 100 mg/kg PO, male Wistar rats, plasma, individual Rat#1-6, read-out: Tmax): 2 h
AUC(0-inf) (male, Wistar, rat, plasma, 100 mg/kg, Table S6, 100 mg/kg PO, male Wistar rats, plasma, mean of Rat#1-6, read-out: AUCINF, Mean): 2420 ng·h/mL
AUC(0-t) (male, Wistar, rat, plasma, 100 mg/kg, Table S6, 100 mg/kg PO, male Wistar rats, plasma, mean of Rat#1-6, read-out: AUClast, Mean): 2340 ng·h/mL
Cmax (male, Wistar, rat, plasma, 100 mg/kg, Table S6, 100 mg/kg PO, male Wistar rats, plasma, mean of Rat#1-6, read-out: Cmax, Mean): 416 ng/mL
half-life (male, Wistar, rat, plasma, 100 mg/kg, Table S6, 100 mg/kg PO, male Wistar rats, plasma, mean of Rat#1-6): 5.53 h
Tmax (male, Wistar, rat, plasma, 100 mg/kg, Table S6, 100 mg/kg PO, male Wistar rats, plasma, mean of Rat#1-6, read-out: Tmax, Mean): 1.5 h
AUC(0-inf) (male, Wistar, rat, plasma, 100 mg/kg, Table S7, 100 mg/kg PO, male Wistar rats, plasma, individual Rat#7-12, read-out: AUCINF): 4250 ng·h/mL
AUC(0-t) (male, Wistar, rat, plasma, 100 mg/kg, Table S7, 100 mg/kg PO, male Wistar rats, plasma, individual Rat#7-12, read-out: AUClast): 4240 ng·h/mL
Cmax (male, Wistar, rat, plasma, 100 mg/kg, Table S7, 100 mg/kg PO, male Wistar rats, plasma, individual Rat#7-12, read-out: Cmax): 822 ng/mL
Tmax (male, Wistar, rat, plasma, 100 mg/kg, Table S7, 100 mg/kg PO, male Wistar rats, plasma, individual Rat#7-12, read-out: Tmax): 1 h
AUC(0-inf) (male, Wistar, rat, plasma, 100 mg/kg, Table S7, 100 mg/kg PO, male Wistar rats, plasma, mean of Rat#7-12, read-out: AUCINF, Mean): 4270 ng·h/mL
AUC(0-t) (male, Wistar, rat, plasma, 100 mg/kg, Table S7, 100 mg/kg PO, male Wistar rats, plasma, mean of Rat#7-12, read-out: AUClast, Mean): 4260 ng·h/mL
Cmax (male, Wistar, rat, plasma, 100 mg/kg, Table S7, 100 mg/kg PO, male Wistar rats, plasma, mean of Rat#7-12, read-out: Cmax, Mean): 864 ng/mL
half-life (male, Wistar, rat, plasma, 100 mg/kg, Table S7, 100 mg/kg PO, male Wistar rats, plasma, mean of Rat#7-12): 4.06 h
Tmax (male, Wistar, rat, plasma, 100 mg/kg, Table S7, 100 mg/kg PO, male Wistar rats, plasma, mean of Rat#7-12, read-out: Tmax, Mean): 1 h
AUC(0-inf) (male, Wistar, rat, plasma, 100 mg/kg, rats, single oral 100 mg/kg, read-out: AUCinf): 4270 ± 608 ng·h/mL
Cmax (male, Wistar, rat, plasma, 100 mg/kg, rats, single oral 100 mg/kg, read-out: Cmax): 864 ng/mL and 1.42 µM
Tmax (male, Wistar, rat, plasma, 100 mg/kg, rats, single oral 100 mg/kg, read-out: Tmax): 1 h
AUC(0-inf) (male, Wistar, rat, plasma, 200 mg/kg, Table S8, 200 mg/kg PO, male Wistar rats, plasma, individual Rat#13-18, read-out: AUCINF): 7500 ng·h/mL
AUC(0-t) (male, Wistar, rat, plasma, 200 mg/kg, Table S8, 200 mg/kg PO, male Wistar rats, plasma, individual Rat#13-18, read-out: AUClast): 7480 ng·h/mL
Cmax (male, Wistar, rat, plasma, 200 mg/kg, Table S8, 200 mg/kg PO, male Wistar rats, plasma, individual Rat#13-18, read-out: Cmax): 1180 ng/mL
Tmax (male, Wistar, rat, plasma, 200 mg/kg, Table S8, 200 mg/kg PO, male Wistar rats, plasma, individual Rat#13-18, read-out: Tmax): 2 h
AUC(0-inf) (male, Wistar, rat, plasma, 200 mg/kg, Table S8, 200 mg/kg PO, male Wistar rats, plasma, mean of Rat#13-18, read-out: AUCINF, Mean): 7320 ng·h/mL
AUC(0-t) (male, Wistar, rat, plasma, 200 mg/kg, Table S8, 200 mg/kg PO, male Wistar rats, plasma, mean of Rat#13-18, read-out: AUClast, Mean): 7270 ng·h/mL
Cmax (male, Wistar, rat, plasma, 200 mg/kg, Table S8, 200 mg/kg PO, male Wistar rats, plasma, mean of Rat#13-18, read-out: Cmax, Mean): 1280 ng/mL
half-life (male, Wistar, rat, plasma, 200 mg/kg, Table S8, 200 mg/kg PO, male Wistar rats, plasma, mean of Rat#13-18): 5.08 h
Tmax (male, Wistar, rat, plasma, 200 mg/kg, Table S8, 200 mg/kg PO, male Wistar rats, plasma, mean of Rat#13-18, read-out: Tmax, Mean): 1.33 h
AUC(0-inf) (male, Wistar, rat, plasma, 200 mg/kg, rats, single oral 200 mg/kg, read-out: AUCinf): 7320 ± 1460 ng·h/mL
Cmax (male, Wistar, rat, plasma, 200 mg/kg, rats, single oral 200 mg/kg, read-out: Cmax): 1280 ng/mL and 2.1 µM
Tmax (male, Wistar, rat, plasma, 200 mg/kg, rats, single oral 200 mg/kg, read-out: Tmax): 1.33 ± 0.516 h
k el [3]: 4.44e-05 s⁻¹
AUC [3]: 2340 ± 979 ng·h/mL
k el [4]: 5.28e-05 s⁻¹
AUC [4]: 4260 ± 621 ng·h/mL
k el [5]: 4.72e-05 s⁻¹
AUC [5]: 7270 ± 1490 ng·h/mL
Average plasma concentration after administration in rats (rats, PO): 200 to 700 nM
MRT24 (rats, single oral 30 mg/kg): 4.26 ± 0.57 h
τ1/2 (rats, single oral 30 mg/kg): 5.53 ± 2.38 h
MRT24 (rats, single oral 100 mg/kg): 4.12 ± 0.56 h
τ1/2 (rats, single oral 100 mg/kg): 4.06 ± 1.49 h
MRT24 (rats, single oral 200 mg/kg): 4.89 ± 1.63 h
τ1/2 (rats, single oral 200 mg/kg): 5.08 ± 2.39 h
